One data set relates to T24 (bladder). The data set can be described thus: Cytotoxicity, sulforhodamine B, 48 h. It is filed as cell-based. To be noted: Homo sapiens, mean ± sd.
Another data set has as its system Hep-G2 (liver). The data set is described as follows: Cytotoxicity, sulforhodamine B, 48 h. The conditions noted are these: Homo sapiens, HepG2, mean ± sd. It is filed as cell-based.
For another data set, the system named is Panc-1 (pancreas). The data set is described as follows: Cytotoxicity, sulforhodamine B, 48 h. Format: cell-based. The conditions noted are these: Homo sapiens, mean ± sd.
For the next data set, the system named is Caco-2 (colon). The data set is described as follows: Cytotoxicity, sulforhodamine B, 48 h. Format: cell-based. The conditions noted are these: Homo sapiens, mean ± sd.
Data set [1] deals with JC murine adenocarcinoma cells in Balb/c mice. The data set can be described thus: JC mammary adenocarcinoma syngeneic tumor model. The conditions noted are these: for inhibition of tumor growth relative to controls: 50 mg/kg IP every-other day, Balb/c mice; for In vivo activity: JC tumor model, intraperitoneal (ip) or oral (po). Format: in vivo. As to the method: FIG. 1. Inhibition of tumor growth by SK inhibitors. Balb/c female mice were injected subcutaneously with JC murine adenocarcinoma cells suspended in PBS. After palpable tumor growth, animals were treated by intraperitoneal injection of either 0.1 mL of 50% DMSO (control, circles) or 50 mg/kg of Compound 8 (squares) or Compound 73 (triangles) on odd numbered days. Whole body weight and tumor volume measurement were performed for up to 18 days. * p<0.05. Inset: Averaged body weights of mice from each group during course of study.
FIG. 2. Dose-response relationships for inhibition of tumor growth by Compound 8. Balb/c female mice were injected subcutaneously with JC cells suspended in PBS. After palpable tumor growth, animals were treated by oral gavage of either 100 μl of PEG400 (control, circles) or Compound 8 at 3.5 mg/kg (diamonds), 10 mg/kg (inverted triangles), 35 mg/kg (triangles) or 100 mg/kg (squares) on odd numbered days. Whole body weight and tumor volume measurement were performed for up to 18 days.
The SK inhibitors Compounds 8 and 73 were dissolved in 50% DMSO and administered by intraperitoneal injection to mice every-other day at a dose of 50 mg/kg. Body weights and tumor volumes were monitored daily.

The next data set in a line: physchem. To be noted: aqueous with cosolvent or surfactant or cyclodextrin, in DMSO: PBS (IP) or PEG400 (oral). It is filed as physicochemical.
Data set [2] has as its system female Swiss-Webster mice. The data set is described as follows: In vivo toxicity in mice. The conditions noted are these: orally up to at least 100 mg/kg.
For data set [3], the system named is MCF-7 human breast adenocarcinoma cells. The data set is described as follows: Cytotoxicity, SRB assay, 48 h. It is filed as cell-based. To be noted: Homo sapiens, MCF7. How it is done: (§1) To further assess the biological efficacies of the Compounds in intact cells, each Compound was evaluated for cytotoxicity using human cancer cell lines. These experiments followed methods that have been extensively used. Cell lines tested included MCF-7 human breast adenocarcinoma cells. The indicated cell lines were treated with varying doses of the test Compound for 48 h. Cell survival was then determined using the SRB binding assay (Skehan et al., 1990, J Natl Cancer Inst 82: 1107), and the concentration of compound that inhibited proliferation by 50% (the IC50) was calculated. Values (in μM) represent the mean±sd for replicate trials.

In another data set the test system is DU145 (prostate). The data set can be described thus: Cytotoxicity, sulforhodamine B, 48 h. Format: cell-based. To be noted: Homo sapiens, DU-145, mean ± sd. How it is done: as §1
The next data set relates to A-498 (Kidney). The data set can be described thus: Cytotoxicity, sulforhodamine B, 48 h. Format: cell-based. The conditions noted are these: Homo sapiens, A498, mean ± sd. As to the method:
as §1

In another data set the test system is MDA-MB-231 (breast, ER−). The data set is described as follows: Cytotoxicity, sulforhodamine B, 48 h. Format: cell-based. The conditions noted are these: Homo sapiens, mean ± sd. As to the method:
as §1

For a further data set, the system named is 1025LU (Melanoma). The data set is described as follows: Cytotoxicity, sulforhodamine B, 48 h. It is filed as cell-based. The conditions noted are these: Homo sapiens, mean ± sd. How it is done: as §1
For a further data set, the system named is SK-OV-3 (ovary). The data set can be described thus: Cytotoxicity, sulforhodamine B, 48 h. It is filed as cell-based. The conditions noted are these: Homo sapiens, mean ± sd. How it is done:
as §1

Another data set relates to HT-29 (colon). The data set is described as follows: Cytotoxicity, sulforhodamine B, 48 h. Format: cell-based. To be noted: Homo sapiens, mean ± sd. How it is done:
as §1

The next data set has as its system C57BL/6 mice. The data set can be described thus: Acute DSS-colitis model of IBD. It is filed as in vivo, mouse. The conditions noted are these: 2% DSS, 50 mg/kg oral daily. How it is done:
FIG. 4. Effects of Compound 8 and Dipentum on the DAI in the acute DSS-colitis model. C57BL/6 mice were treated for 6 days as follows: normal drinking water and daily oral administration of PEG (No DSS), 2% DSS in the drinking water and daily oral administration of PEG (DSS alone); 2% DSS in the drinking water and daily oral administration of 50 mg/kg Compound 8 in PEG (DSS+Compound 8), or 2% DSS in the drinking water and daily oral administration of 50 mg/kg Dipentum in PEG (DSS+Dipentum). On the indicated day, the Disease Activity Index was calculated for each group. Values represent the mean±sd for 5-6 mice per group.
FIG. 5. Effects of Compound 8 and Dipentum on colon length in the acute DSS-colitis model. Mice from the experiment described in FIG. 4 were sacrificed on Day 6, and the colon was harvested from each animal and measured. Data represent the mean±sd colon length.
FIG. 6. Effects of Compound 8 and Dipentum on neutrophil infiltration into the colon in the acute DSS-colitis model. Myeloperoxidase (MPO) activity from the colons of the animals described in FIG. 4 was measured. Values the mean±sd MPO activity in units per gram of tissue.
FIG. 7. Effects of Compound 8 and Dipentum on colonic cytokine levels in the acute DSS-colitis model. Colon samples from mice described in FIG. 4 were extracted and assayed for the levels of the indicated cytokines Values represent the mean±sd amount of each cytokine in 4-5 samples per group.
Experiments were conducted with SK inhibitors using the dextran sulfate sodium (DSS) model of IBD. In these experiments, male C57BL/6 mice were provided with standard rodent diet and water ad libitum. After their acclimation, the animals were randomly divided into groups of 5 or 6 for DSS (40,000 MW from ICN Biomedicals, Inc., Aurora, Ohio)— and drug-treatment. […] The body weight of each animal was measured each day, and the Disease Activity Index (DAI) was scored for each animal on Days 4-6. On Day 6, the animals were sacrificed by cervical dislocation and the entire colon was removed and measured to the nearest 0.1 cm.

The mark [4] stands for this setting: Table 6, 48 h, SRB, inhibition of cell proliferation, read-out: MCF-7 IC50.
Where [5] appears, read: Table 7, 48 hours, mean ± sd, read-out: IC50 (μM) MCF-7.

Experimental findings from US20100137315A1, “Sphingosine Kinase Inhibitors and Methods of Their Use” (APOGEE BIOTECHNOLOGY CORPORATION, priority 2005, published 2010) are described below.

Molecules are shown by their SMILES. Read-outs that look alike come from different tables or passages of the source.

As for `Clc1ccc(-c2csc(NCc3ccccc3)n2)cc1` [Compound 73, Benzyl-[4-(4-chloro-phenyl)-thiazol-2-yl]-amine], the IC50 with T24 (bladder) was determined as 22.7 ± 4.8 µM; with Hep-G2 (liver), 13.8 ± 8.7 µM; in the data set on Panc-1 (pancreas) it was 6.7 ± 2.4 µM; in the data set on Caco-2 (colon), 6.3 ± 5.2 µM; in data set [3] (setting [4]), 8.3 µM; in data set [3] (setting [5]) it was 1.8 ± 0.7 µM. The IC50 in the data set on DU145 (prostate) was 6.5 ± 3.6 µM; in the data set with A-498 (Kidney), 4 ± 1.9 µM; in the data set on MDA-MB-231 (breast, ER−), 26.6 ± 6.7 µM; with 1025LU (Melanoma), 8.3 ± 2.4 µM; with SK-OV-3 (ovary) it was 10.2 ± 0.3 µM; in the data set on HT-29 (colon), 29.9 ± 9.4 µM. The “inhibition of tumor growth relative to controls” value in data set [1] was 69%. Further, the In vivo activity entry in [1] was “active - ip”. The results for the solubility in the data set “physchem” (read-out: solubility) and in “physchem” (read-out: solubility (molar)) were no less than 15 mg/mL and 30 to 40 mM, respectively. For the same compound, in [2], the “toxicity, oral administration” value is reported as “without noticeable toxicity”.

Turning to `CCCC(=O)Oc1ccc(C=CC(=O)Nc2nc(-c3ccc(Cl)cc3)cs2)cc1OC` [Compound 8, Butyric acid 4-{2-[4-(4-chloro-phenyl)-thiazol-2-ylcarbamoyl]-vinyl}-2-methoxy-phenyl ester], the IC50 in the data set on T24 (bladder) came out at 25.2 ± 2.9 µM; in the data set on Hep-G2 (liver) it was 81.5 ± 38.9 µM; in the data set on Panc-1 (pancreas), 19 ± 2.5 µM; in the data set on Caco-2 (colon) it was 2.6 ± 1.2 µM; in data set [3] (setting [4]), 6.6 µM; in data set [3] (setting [5]) it was 25.2 ± 4.7 µM. Moreover, the IC50 in the data set with DU145 (prostate) stood at 21.2 ± 1.3 µM; in the data set on A-498 (Kidney), 38.3 ± 7.7 µM; in the data set on MDA-MB-231 (breast, ER−), 30.1 ± 3.9 µM; with 1025LU (Melanoma), 30.1 ± 3.9 µM; in the data set on SK-OV-3 (ovary), 23.7 ± 3.2 µM; in the data set on HT-29 (colon), 54.7 ± 0.1 µM. Moreover, in the data set on C57BL/6 mice, the “increase in colonic MPO activity” value is “markedly attenuated”. In addition, the colon length result in the data set with C57BL/6 mice (Day 6) is reported as “intermediate length”. The “Disease Activity Index (DAI)” value in the data set on C57BL/6 mice (Days 4-6) was “reduced the intensity of the IBD manifestations”. Besides, in [1], the “inhibition of tumor growth relative to controls” value is recorded as 66%. Besides, the In vivo activity result in data set [1] was “active - ip and po”. Also, the “oral doses with antitumor activity” value in data set [1] (oral gavage 3.5-100 mg/kg on odd numbered days) was no less than 10 mg/kg. Also, the “toxicity to the mice in the dose-response study” value in [1] (oral, any dose (3.5-100 mg/kg)) was “No toxicity”. In addition, the solubility is no less than 15 mg/mL in the data set “physchem” (read-out: solubility) and 30 to 40 mM in “physchem” (read-out: solubility (molar)). The “toxicity, oral administration” value in [2] is given as “without noticeable toxicity”.
